From US10717749B2, “Macrocyclic sulfondiimine compounds” (BAYER PHARMA AKTIENGESELLSCHAFT, priority 2015, dated 2020)
Like-named read-outs stand apart in the source and are kept apart here. Marks after values point to notes of the source that are not given here.

Key:
[1] = biological target: T1, human PTEFb (CDK9/Cyclin T1) (Homo sapiens, UniProt P50750); assay: Surface Plasmon Resonance PTEFb; format: binding; details: for Target resident time: 1/koff; for koff: read-out: Dissociation rate constant koff
T1 construct: purchased ProQinase, Freiburg, Germany
T1 sequence (P50750 whole entry): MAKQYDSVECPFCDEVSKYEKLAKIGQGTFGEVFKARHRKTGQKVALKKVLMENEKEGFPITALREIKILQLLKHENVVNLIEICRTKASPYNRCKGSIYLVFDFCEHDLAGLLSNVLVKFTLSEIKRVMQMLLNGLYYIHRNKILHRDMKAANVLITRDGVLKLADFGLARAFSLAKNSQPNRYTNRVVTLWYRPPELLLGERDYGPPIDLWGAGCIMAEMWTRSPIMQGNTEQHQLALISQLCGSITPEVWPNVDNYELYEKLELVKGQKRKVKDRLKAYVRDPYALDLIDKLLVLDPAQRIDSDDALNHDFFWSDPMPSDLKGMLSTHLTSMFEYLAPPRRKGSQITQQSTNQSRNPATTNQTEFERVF
T1 sequence (O60563 whole entry partner): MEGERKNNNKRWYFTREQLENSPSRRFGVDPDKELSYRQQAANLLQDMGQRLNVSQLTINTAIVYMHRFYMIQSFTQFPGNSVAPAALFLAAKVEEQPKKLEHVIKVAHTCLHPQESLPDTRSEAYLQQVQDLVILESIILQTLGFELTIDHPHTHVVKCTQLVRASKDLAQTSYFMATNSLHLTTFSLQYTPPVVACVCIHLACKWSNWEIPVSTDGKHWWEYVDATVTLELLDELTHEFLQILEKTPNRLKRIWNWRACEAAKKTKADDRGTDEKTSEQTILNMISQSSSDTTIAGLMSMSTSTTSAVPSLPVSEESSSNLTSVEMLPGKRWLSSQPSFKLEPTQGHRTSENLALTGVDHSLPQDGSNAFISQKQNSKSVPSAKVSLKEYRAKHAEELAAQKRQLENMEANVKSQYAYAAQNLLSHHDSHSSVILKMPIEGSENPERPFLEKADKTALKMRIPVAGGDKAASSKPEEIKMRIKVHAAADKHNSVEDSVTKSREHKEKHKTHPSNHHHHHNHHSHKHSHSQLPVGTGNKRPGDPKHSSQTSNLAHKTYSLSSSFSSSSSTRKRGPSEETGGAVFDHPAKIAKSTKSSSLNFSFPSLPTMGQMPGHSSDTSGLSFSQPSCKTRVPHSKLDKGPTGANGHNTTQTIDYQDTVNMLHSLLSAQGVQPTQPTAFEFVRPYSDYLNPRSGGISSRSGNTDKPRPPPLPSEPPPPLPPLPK
Source text: 8. Surface Plasmon Resonance PTEFb
The ability of the compounds according to the invention to bind human PTEFb may be determined using surface plasmon resonance (SPR). KD values and koff values may be measured using a Biacoret T200 instrument (GE Healthcare, Uppsala, Sweden).
For SPR measurements, recombinant human PTEFb (CDK9/Cyclin T1 recombinant human active protein kinase purchased from ProQinase, Freiburg, Germany) is immobilized using standard amine coupling (Johnsson B et al, Anal Biochem. 1991 Nov. 1; 198(2):268-77). Briefly, carboxymethylated dextran biosensor chips (CM7, GE Healthcare) are activated with N-ethyl-N′-(3-dimethylaminopropyl)-carbodiimide hydrochloride (EDC) and N-hydroxysuccinimide (NHS) according to the supplier's instructions. Human PTEFb is diluted in 1×HBS-EP+(GE Healthcare) into 30 μg/ml and injected on the activated chip surface. Subsequently, a 1:1 solution of 1 M ethanolamine-HCl (GE Healthcare) and 1×HBS-EP is injected to block unreacted groups, resulting in approximately 4000 response units (RU) of immobilized protein. A reference surface is generated by treatment with NHS-EDC and ethanolamine-HCl. Compounds are dissolved in 100% dimethylsulfoxide (DMSO, Sigma-Aldrich, Germany) to a concentration of 10 mM and subsequently diluted in running buffer (1×HBS-EP+pH 7.4 [generated from HBS-EP+Buffer 10×(GE Healthcare): 0.1 M HEPES, 1.5 M NaCl, 30 mM EDTA and 0.5% v/v Surfactant P20], 1% v/v DMSO). For kinetic measurements, four-fold serial dilutions of compound (0.39 nM to 100 nM) are injected over immobilized protein. […] Compound concentrations are injected for 60 s followed by a dissociation time of 1800 s. The resulting sensorgrams are double-referenced against the reference surface as well as against blank injections.
The double-referenced sensorgrams are fit to a simple reversible Langmuir 1:1 reaction mechanism as implemented in the Biacore® T200 evaluation software 2.0 (GE Healthcare). In cases were full compound dissociation has not occurred at the end of the dissociation phase, the Rmax parameter (response at saturation) is fit as local variable. In all other cases, Rmax is fit as global variable.

[2] = biological target: T2, CDK2/CycE (Homo sapiens, UniProt P24941); assay: CDK2/CycE high ATP kinase assay (Method 2b, TR-FRET, 2 mM ATP); format: biochemical
T2 construct: GST; purchased ProQinase GmbH (Freiburg, Germany); host or cells: insect cells (Sf9)
Description: 2b. CDK2/CycE High ATP Kinase Assay:
CDK2/CycE-inhibitory activity of compounds of the present invention at 2 mM adenosine-tri-phosphate (ATP) was quantified employing the CDK2/CycE TR-FRET (TR-FRET=Time Resolved Fluorescence Resonance Energy Transfer) assay as described in the following paragraphs.
Recombinant fusion proteins of GST and human CDK2 and of GST and human CycE, expressed in insect cells (Sf9) and purified by Glutathion-Sepharose affinity chromatography, were purchase from ProQinase GmbH (Freiburg, Germany). As substrate for the kinase reaction biotinylated peptide biotin-Ttds-YISPLKSPYKISEG (C-terminus in amid form) was used which can be purchased e.g. from the company JERINI peptide technologies (Berlin, Germany).
For the assay 50 nl of a 100 fold concentrated solution of the test compound in DMSO was pipetted into a black low volume 384 well microtiter plate (Greiner Bio-One, Frickenhausen, Germany), 2 μl of a solution of CDK2/CycE in aqueous assay buffer [50 mM Tris/HCl pH 8.0, 10 mM MgCl2, 1.0 mM dithiothreitol, 0.1 mM sodium ortho-vanadate, 0.01% (v/v) Nonidet-P40 (Sigma)] were added and the mixture was incubated for 15 min at 22° C. to allow pre-binding of the test compounds to the enzyme before the start of the kinase reaction. […] The concentration of CDK2/CycE was adjusted depending of the activity of the enzyme lot and was chosen appropriate to have the assay in the linear range, typical concentrations were in the range of 15 ng/ml. The reaction was stopped by the addition of 5 μl of a solution of TR-FRET detection reagents (0.2 μM streptavidine-XL665 [Cisbio Bioassays, Codolet, France] and 1 nM anti-RB(pSer807/pSer811)-antibody from BD Pharmingen [#558389] and 1.2 nM LANCE EU-W1024 labeled anti-mouse IgG antibody [Perkin-Elmer, product no. AD0077, as an alternative a Terbium-cryptate-labeled anti-mouse IgG antibody from Cisbio Bioassays can be used]) in an aqueous EDTA-solution (100 mM EDTA, 0.2% (w/v) bovine serum albumin in 100 mM HEPES pH 7.5).
The resulting mixture was incubated 1 h at 22° C. to allow the formation of complex between the phosphorylated biotinylated peptide and the detection reagents. Subsequently the amount of phosphorylated substrate was evaluated by measurement of the resonance energy transfer from the Eu-chelate to the streptavidine-XL. Therefore, the fluorescence emissions at 620 nm and 665 nm after excitation at 350 nm wer measured in a TR-FRET reader, e.g. a Rubystar (BMG Labtechnologies, Offenburg, Germany) or a Viewlux (Perkin-Elmer). The ratio of the emissions at 665 nm and at […] was taken as the measure for the amount of phosphorylated substrate. The data were normalised (enzyme reaction without inhibitor=0% inhibition, all other assay components but no enzyme=100% inhibition).

[3] = test system: A2780; assay: Proliferation assay, Cell Titer-Glo; format: cell-based; details: Homo sapiens; A2780, 72-hour exposure; read-out: Inhibition of A2780 cell proliferation IC50
Description: (§1) MOLM-13 human acute myeloid leukemia cells (DSMZ ACC 554) and A2780, human ovarian carcinoma cells (ECACC #93112519) were seeded at a density of 5,000 cells/well (MOLM-13), or 3,000 cells/well (A2780) in a 96-well multititer plate in 150 μL of growth medium supplemented 10% fetal calf serum. After 24 hours, cell viability of one plate (zero-point plate) was determined with the Cell Titer-Glo Luminescent Cell Viability Assay (Promega), whiletest compound was added to the wells of the other plates employing HP Dispenser (final concentrations in the range of 0.0001-10 μM and DMSO controls). Cell viability was assessed after 72-hour exposure with the Cell Titer-Glo Luminescent Cell Viability Assay (Promega). IC50 values (inhibitory concentration at 50% of maximal effect) were determined by means of a 4 parameter fit on measurement data which were normalized to vehicle (DMSO) treated cells (=100%) and measurement readings taken immediately before compound exposure (=0%).

[4] = test system: MOLM-13; assay: Proliferation assay, Cell Titer-Glo; format: cell-based; details: Homo sapiens; MOLM-13, 72-hour exposure; read-out: Inhibition of MOLM-13 cell proliferation IC50
Description: as §1

Row | IC50 [2] [nM] | IC50 [3] [nM] | Target resident time ([1]; 25° C., Parameters B) | koff ([1]; 25° C., Parameters B) [s⁻¹] | IC50 [4] [nM] | Target resident time ([1]; 25° C., Parameters C) [min] | koff ([1]; 25° C., Parameters C) [s⁻¹] | SMILES | further results
1 | 620 | 11.7 |  | 4.96e-05 | 4.7 |  |  | CN=S(C)(=N)Cc1cc2nc(c1)OCCCOc1cc(F)ccc1-c1cc(ncc1F)N2 (racemic) [Example 4, (rac)-8-[(N,S-dimethylsulfonodiimidoyl)methyl]-15,19-difluoro-3,4-dihydro-2H,11H-10,6-(azeno)-12,16-(metheno)-1,5,11,13-benzodioxadiazacyclooctadecine] | Target resident time ([1]; 25° C., Parameters D): 70 min; koff ([1]; 25° C., Parameters D): 0.000237 s⁻¹
2 | 140 | 4 | > 666 min | < 2.5e-05 | 2.8 |  |  | CS(=N)(=N)Cc1cc2nc(c1)OCCCOc1cc(F)ccc1-c1cc(ncc1F)N2 [Example 1, 15,19-difluoro-8-[(S-methylsulfonodiimidoyl)methyl]-3,4-dihydro-2H,11H-10,6-(azeno)-12,16-(metheno)-1,5,11,13-benzodioxadiazacyclooctadecine] | Target resident time ([1]; 25° C., Parameters A): > 333 min; koff ([1]; 25° C., Parameters A): < 5e-05 s⁻¹
3 | 62.4 | 2.6 | > 666 min | < 2.5e-05 | 2 | > 333 | < 5e-05 | CS(=N)(Cc1cc2nc(c1)OCCCOc1cc(F)ccc1-c1cc(ncc1F)N2)=NC#N (racemic) [Example 3, (rac)-[{[15,19-difluoro-3,4-dihydro-2H,11H-10,6-(azeno)-12,16-(metheno)-1,5,11,13-benzodioxadiazacyclooctadecin-8-yl]methyl}(imino)methyl-λ^6-sulfanylidene]cyanamide] | 

Further lines, the molecule ahead of its results:

Row | SMILES | IC50 [2] [nM] | IC50 [3] [nM] | Target resident time ([1]; 25° C., Parameters B) | koff ([1]; 25° C., Parameters B) [s⁻¹] | IC50 [4] [nM] | Target resident time ([1]; 25° C., Parameters C) [min] | koff ([1]; 25° C., Parameters C) [s⁻¹] | further results
4 | CN=S(C)(=N)Cc1cc2cc(c1)OCCCCOc1cc(F)ccc1-c1nc(ncc1F)N2 (racemic) [Example 10, (rac)-9-[(N,S-dimethylsulfonodiimidoyl)methyl]-16,20-difluoro-2,3,4,5-tetrahydro-12H-13,17-(azeno)-11,7-(metheno)-1,6,12,14-benzodioxadiazacyclononadecine] | 1650 | 29 |  |  |  |  |  | Target resident time ([1]; 37° C., Parameters E): 20* min; koff ([1]; 37° C., Parameters E): 0.000833 s⁻¹
5 | CS(=N)(=N)Cc1cc2cc(c1)OCCCCOc1c(ccc(F)c1F)-c1nc(ncc1F)N2 [Example 6, 16,20,21-trifluoro-9-[(S-methylsulfonodiimidoyl)methyl]-2,3,4,5-tetrahydro-12H-13,17-(azeno)-11,7-(metheno)-1,6,12,14-benzodioxadiazacyclononadecine] | 12500 | 123 | 9* min | 0.00188 | 113 |  |  | 
6 | CS(=N)(=N)Cc1cc2nc(c1C#N)OCCCOc1cc(F)ccc1-c1cc(ncc1F)N2 [Example 8, 15,19-difluoro-8-[(S-methylsulfonodiimidoyl)methyl]-3,4-dihydro-2H,11H-10,6-(azeno)-12,16-(metheno)-1,5,11,13-benzodioxadiazacyclooctadecine-7-carbonitrile] | 378 | 18.1 |  |  | 4.2 |  |  | Target resident time ([1]; 25° C., Parameters G): 51* min; koff ([1]; 25° C., Parameters G): 0.000326 s⁻¹
7 | CS(=N)(=N)Cc1cc2cc(c1)OCCCCOc1cc(F)ccc1-c1nc(ncc1F)N2 [Example 5, 16,20-difluoro-9-[(S-methylsulfonodiimidoyl)methyl]-2,3,4,5-tetrahydro-12H-13,17-(azeno)-11,7-(metheno)-1,6,12,14-benzodioxadiazacyclononadecine] | 1240 | 11.7 |  |  | 8.2 | 49 | 0.000338 | Target resident time ([1]; 25° C., Parameters D): 40 min; koff ([1]; 25° C., Parameters D): 0.000412 s⁻¹; Target resident time ([1]; 37° C., Parameters E): 21* min; koff ([1]; 37° C., Parameters E): 0.000809 s⁻¹
8 | CS(=N)(Cc1cc2cc(c1)OCCCCOc1cc(F)ccc1-c1nc(ncc1F)N2)=NC1CC1 (racemic) [Example 9, (rac)-9-[(N-cyclopropyl-S-methylsulfonodiimidoyl)methyl]-16,20-difluoro-2,3,4,5-tetrahydro-12H-13,17-(azeno)-11,7-(metheno)-1,6,12,14-benzodioxadiazacyclononadecine] | 997 | 31.3 |  |  | 22.2 |  |  | Target resident time ([1]; 25° C., Parameters F): 79* min; koff ([1]; 25° C., Parameters F): 0.000211 s⁻¹
9 | CS(=N)(=N)Cc1cc2cc(c1)OCCCCOc1c(F)cccc1-c1nc(ncc1F)N2 [Example 7, 16,21-difluoro-9-[(S-methylsulfonodiimidoyl)methyl]-2,3,4,5-tetrahydro-12H-13,17-(azeno)-11,7-(metheno)-1,6,12,14-benzodioxadiazacyclononadecine] |  | 125 |  |  | 126 |  |  | Target resident time ([1]; 25° C., Parameters G): 11* min; koff ([1]; 25° C., Parameters G): 0.00154 s⁻¹
10 | CS(=N)(Cc1cc2nc(c1)OCCCOc1cc(F)ccc1-c1cc(ncc1F)N2)=NCCCO (racemic) [Example 2, (rac)-3-(2-{[15,19-difluoro-3,4-dihydro-2H,11H-10,6-(azeno)-12,16-(metheno)-1,5,11,13-benzodioxadiazacyclooctadecin-8-yl]methyl}-2-methyl-2λ^6-diazathia-1,2-dien-1-yl)propan-1-ol] | 246 | 5.4 | > 666 min | < 2.5e-05 | 5.3 | > 333 | < 5e-05 | 
